Assay results as given in patent US12295973B2 (Fred Hutchinson Cancer Center, priority 2017, dated 2025).
Where a SMILES comes first, the peptide text is derived from it. [ ]: non-standard residue; d: D form. The star is where a group is joined. dPhe(4-NHCONH2) = NC(=O)Nc1ccc(C[C@@H](N)C(=O)O)cc1; Dihydroorotyl(S) = O=C1C[C@@H](C(=O)*)NC(=O)N1; dPhe(4-Cl) = N[C@H](Cc1ccc(Cl)cc1)C(=O)O; Phe(4-NH2) = Nc1ccc(C[C@H](N)C(=O)O)cc1; d2Nal = N[C@H](Cc1ccc2ccccc2c1)C(=O)O; Lys(iPr) = CC(C)NCCCC[C@H](N)C(=O)O; d3Pal = N[C@H](Cc1cccnc1)C(=O)O

Key:
Assay type in all cases: in vivo, mouse
LT-HSCs [1] = assay: Cell cycle status of LT-HSCs in Poly I:C and SL-TBI models, surgically castrated mice
Protocol: (§1) To further validate this hypothesis, two additional models were used to force HSCs out of their quiescence phase, Poly I:C and sub-lethal dose of total body irradiation (SL-TBI)^35,42,43. To eliminate any potential effects of downstream sex steroids on HSCs, all cohorts of mice in these studies had been surgically castrated.
Reagents: Degarelix (as acetate), a LHRH-Ant (Firmagon), was resuspended in sterile water for injection and administered S.C. to mice at a dose of 40 mg/kg. To evaluate the radiomitigative effect of LHRH-Ant on survival, mice were treated subcutaneously (S.C.) with a single injection of the LHRH-Ant or a saline control solution (PBS). Degarelix was purchased from the Memorial Sloan-Kettering Cancer Center Pharmacy. […] LH from human pituitary (SIGMA) was resuspended in PBS for in vitro studies. MDV3100 (selleckchem) was resuspended in a mixture of 45% PBS, 45% PEG and 10% DMSO and administered daily to mice by oral gavage at a dose of 10 mg/kg. 5-FU (InvivoGen) was administered to mice intraperitoneally (I.P.) at a dose of 150 mg/kg once every 7 days consecutively for 3 times as previously described^34,47,49. […]

[2] = test system: committed hematopoietic progenitor cells; assay: Colony-forming unit activity of BM from L-TBI mice; details: day 7 after L-TBI
Protocol: To investigate the specific regenerative effects mediated by LHRH-Ant treatment on the hematopoietic stem and progenitor cell (HSPC) compartment, BM were analyzed at several time points after L-TBI. […] To determine hematopoietic functional potential, colony-forming unit activity was next quantified to determine the effects of LHRH-Ant on the recovery of committed hematopoietic progenitor cells. […] Consistent with these functional findings, on day 14 after L-TBI, expansion of LSKs as well as their downstream progenitors in mice given LHRH-Ant were found (FIGS. 2F, 2G). […] However, given the changes in HSC phenotype after radiation, the standard competitive repopulation functional assay was adapted to evaluate the presence and relative quantity of functional HSCs after L-TBI. […]
Colony-Forming Cell (CFC) and Cobblestone Areas Forming Cell (CAFC): Assays were performed as previously described with a minor modifications^50. […] Colonies were scored after 10 days of incubation at 37° C. and 5% CO2. […] After 3 weeks of co-culture, CAFCs were scored as phase-dark hematopoietic clones of at least 5 cells beneath the stromal layer using an inverted microscope.

LT-HSCs [3] = assay: Cell apoptosis by AnnexinV/DAPI staining after radiation exposure; details: vs vehicle
Description: as §1

With `CC(=O)N[C@H](Cc1ccc2ccccc2c1)C(=O)N[C@H](Cc1ccc(Cl)cc1)C(=O)N[C@H](Cc1cccnc1)C(=O)N[C@@H](CO)C(=O)N[C@@H](Cc1ccc(NC(=O)[C@@H]2CC(=O)NC(=O)N2)cc1)C(=O)N[C@H](Cc1ccc(NC(N)=O)cc1)C(=O)N[C@@H](CC(C)C)C(=O)N[C@@H](CCCCNC(C)C)C(=O)N1CCC[C@H]1C(=O)N[C@H](C)C(N)=O` [LHRH-Ant, Degarelix] (Ac-[d2Nal][dPhe(4-Cl)][d3Pal]S[Phe(4-NH2)](Dihydroorotyl(S))[dPhe(4-NHCONH2)]L[Lys(iPr)]P[dA]-NH2) the “LT-HSCs in G0” value (LT-HSCs [1]; Poly I:C model) was “retained significantly more LT-HSCs in G0”, the “LT-HSCs in G0” value (LT-HSCs [1]; SL-TBI model) was “retained significantly more LT-HSCs in G0” and the BFU-E colonies [2] was “significant increase”. The CFU-GM colonies [2] was “significant increase” and the “proportion of live LT-HSCs” value (LT-HSCs [3]) was “significantly increased the proportion of live LT-HSCs”.
